Data on two compounds can be found in paper PMC4867239 (Journal of biotechnology, 2016).

One series has as its system S. aureus. Put plainly: microbe, parasite or virus in culture. Particulars: Staphylococcus aureus, read-out: active at (MIC assay).
The nature of series [1]: Quantitative whole body autoradiography with [14C]SGX94. The series is classed as in vivo, male CD-1 mice.
Series [2] is described as follows: Phase 1 SAD/MAD plasma PK in healthy volunteers. The following applies: humans. The series is classed as in vivo, Human.
A short description of series [3]: Plasma PK in mice, 14 days of daily IV dosing. The series is classed as in vivo, Mouse (CD-1). The following applies: for AUC(0-t) / Cmax / MRT / Tmax: CD-1, mouse, plasma, iv.
The nature of series [4]: Plasma PK in cynomolgus monkeys, 14 days of daily IV dosing. Type of series: in vivo, Cynomolgus macaques. The following applies: for AUC(0-t) / Cmax / MRT: cynomolgus monkey, plasma, iv.

Ends that are not written are not given here. Some results are limits rather than exact numbers.

Take `CC[C@H]1OC(=O)[C@H](C)[C@@H](O[C@H]2C[C@@](C)(OC)[C@@H](O)[C@H](C)O2)[C@H](C)[C@@H](O[C@@H]2O[C@H](C)C[C@H](N(C)C)[C@H]2O)[C@](C)(O)C[C@@H](C)C(=O)[C@H](C)[C@@H](O)[C@]1(C)O` [erythromycin]: the MIC in the series on S. aureus was < 3.12 µg/mL.
The term AUC(0-t) denotes the area under the concentration-time curve up to a stated or last time point. A lower AUC(0-t) goes with less exposure. For orientation: Cmax means the maximum level reached in the sampled fluid or tissue. Usually MRT stands for the average time that molecules of a dose stay in the body. As usually defined, the Tmax is the time from dosing to the highest level. Regarding RIVPA-NH2 [SGX94, dusquetide], the “major analyte in blood” value in series [1] (20 mg/kg [14C]SGX94 IV, by 5 min post-dose) is “a metabolite of SGX94”. Moreover, the “penetration into CNS, bone, white adipose and eye lens” value in series [1] (QWBA, 20 mg/kg [14C]SGX94 IV bolus, male CD-1 mice) was “low penetration”. In addition, the PK half-life result in series [2], in series [3] (mouse) and in series [4] (non-human primate) was “very short (minutes)” throughout. Also, the exposure AUC(0-t) in series [3] (female, 20 mg/kg) came to 1700 ng·h/mL; in series [3] (female, 60 mg/kg), 6520 ng·h/mL; in series [3] (female, 90 mg/kg), 10400 ng·h/mL; in series [3] (male, 20 mg/kg) it was 4500 ng·h/mL; in series [3] (male, 60 mg/kg), 9290 ng·h/mL; in series [3] (male, 90 mg/kg), 17400 ng·h/mL. The AUC(0-t) in series [4] (female, 20 mg/kg) was determined as 2410 ± 1230 ng·h/mL; in series [4] (female, 80 mg/kg) it was 3360 ± 4710 ng·h/mL; in series [4] (female, 160 mg/kg), 36300 ± 26400 ng·h/mL; in series [4] (male, 20 mg/kg), 1330 ± 438 ng·h/mL; in series [4] (male, 80 mg/kg), 19400 ± 6910 ng·h/mL; in series [4] (male, 160 mg/kg) it was 46000 ± 9570 ng·h/mL. Moreover, the Cmax in series [3] (female, 20 mg/kg) was 8080 ng/mL; in series [3] (female, 60 mg/kg), 27100 ng/mL; in series [3] (female, 90 mg/kg), 45800 ng/mL; in series [3] (male, 20 mg/kg), 23000 ng/mL; in series [3] (male, 60 mg/kg), 41200 ng/mL; in series [3] (male, 90 mg/kg) it was 72200 ng/mL. For the same compound, the Cmax in series [4] (female, 20 mg/kg) is 12.4 ± 6.41 µg/mL; in series [4] (female, 80 mg/kg), 16.9 ± 24.8 µg/mL; in series [4] (female, 160 mg/kg) it was 179 ± 132 µg/mL; in series [4] (male, 20 mg/kg), 6.65 ± 2.52 µg/mL; in series [4] (male, 80 mg/kg), 85.9 ± 25.8 µg/mL; in series [4] (male, 160 mg/kg) it was 206 ± 33.4 µg/mL. The MRT in series [3] (female, 20 mg/kg) was 2 min; in series [3] (female, 60 mg/kg) it was 6.5 min; in series [3] (female, 90 mg/kg) it was 1.8 min; in series [3] (male, 20 mg/kg), 2.3 min; in series [3] (male, 60 mg/kg), 1.8 min; in series [3] (male, 90 mg/kg), 1.6 min. The MRT is 6.6 min in series [4] (female, 20 mg/kg); 55 min in series [4] (female, 80 mg/kg); 6.6 min in series [4] (female, 160 mg/kg); 7.8 min in series [4] (male, 20 mg/kg); 7.8 min in series [4] (male, 80 mg/kg); 7.2 min in series [4] (male, 160 mg/kg). For the same compound, the Tmax in series [3] (male, 20 mg/kg) is 3 min; in series [3] (male, 60 mg/kg) it was 3 min; in series [3] (male, 90 mg/kg), 3 min.
